In US20240189289A1, “INHIBITORS OF EPHB3 SIGNALING” (The Brigham and Women`s Hospital, Inc., priority 2021, published 2024):
Entries after “also recorded” stand apart in the source; their conditions may differ.

Assays:
EAE in C57BL/6 mice = EAE in C57BL/6 mice (MOG35-55); format: in vivo, mouse
Description: EAE. EAE was induced in 8-10 week old female C57BL/6 or NOD by subcutaneous immunization with 150 μg MOG35-55 (#110582, Genemed Synthesis) emulsified in 200 μL of complete Freund's adjuvant per mouse, followed by administration of 200 ng pertussis toxin (#180, List biological Laboratories) on days 0 and 2 as described. […] EAE was assessed as follows: 0, no signs of disease; 1, loss of tone in the tail; 2, hind limb paresis; 3, hind limb paralysis; 4, tetraplegia; 5, moribund.
Mononuclear cells. Mononuclear cells, including astrocytes, monocytes, and microglia, were isolated from the CNS as described. Briefly, mice were perfused with 1×PBS and the isolated brain and spinal cords were homogenized with a razor blade, digested in 0.66 mg/mL papain (#P4762, Sigma-Aldrich) for 15 minutes at 37° C. and subsequently 15 minutes with 0.66 mg/mL Collagenase D (#11088858001, Roche) and 8 U/mL DNase I (#90083, Thermo Fisher Scientific). Samples where then homogenized and filtered through a 70 µm cell strainer and resuspended in 30% Percoll TM solution (#17-5445-01, GE Healthcare) overlayed by 1×PBS for myelin removal. Isolated mononuclear CNS cells were washed with 1×PBS and stained with fluorochrome-conjugated antibody to FITC anti-CD11b (Cat #11-0112-85, eBioscience), APC anti-CD45 (Cat #17-0451-83, eBioscience), BV421 anti-Ly-6C (Cat #128031, Biolegend), PE anti-mouse CD45R/B220 (Cat #553089, BD Biosciences), PE anti-CD140a (Cat #12-1401-81, eBioscience), PE anti-CD105 (Cat #12-1051-82, eBioscience), PE anti-04 (Cat #FAB1326P, R&D), PE anti-Ly-6G (Cat #127608, BioLegend) and PE anti-mouse TER-119 (Cat #116207, BioLegend). Microglia were sorted as CD11b^+CD45^lo Ly6C1^lo, inflammatory monocytes were considered as CD45^hiCD11b^+Ly6C1^hi. Astrocytes were sorted as CD11b^loCD45^lo Ly6C^loCD105^lo CD140a^lo CD11b^loTer119^loCD19^lo after the exclusion of erythrocytes, lymphocytes, microglia, oligodendrocytes, and monocytes. FACSAria IIU (BD Biosciences) was used for cell sorting.
Analysis of T cells. For T-cell flow cytometry analysis, CNS single-cell suspensions or splenocytes were stimulated with 50 ng/mL phorbol 12-myristate 13-acetate (PMA, #P1585, Sigma-Aldrich), 1 μM ionomycin (#I9657, Sigma-Aldrich), GolgiSTOP and (#554724, BD Biosciences, 1:1500) GolgiPLUG (#555029, BD Biosciences, 1:1500) in RPMI 1640 medium (#11875119, Life Technologies) containing 10% FBS (#10438026, GIBCO), penicillin/streptomycin (#15140122, GIBCO, 1:100) for 4 h at 37° C. in a 5% CO2 incubator. Following stimulation, T cells were stained with antibodies against surface markers, and thereafter fixed and stained with antibody against intracellular target protein with an intracellular antibody labeling kit following its instructions (#00-5523, eBioscience).
RNA-sequencing. Sorted astrocytes or microglia were re-suspended in extraction buffer of Picopure RNA isolation kit (KIT0204, Thermo Fisher) and after 30 min incubation at 42° C. samples were extracted following manufacturer's instructions with on-column DNase I digestion (QIAGEN, #79254). RNA was suspended in 10 μl of nuclease free water and 5 μl were sent for SMARTseq sequencing by the Broad Technology Labs and the Broad Genomics Platform. Processed RNA-Seq data was filtered, removing genes with low read counts. Read counts were normalized using TMM normalization and CPM (counts per million) were calculated to create a matrix of normalized expression values.
H&E, LFB and silver staining. Transverse sections from lumbar spinal cords of EAE mice at the end of the experiment were fixed in 4% paraformaldehyde, pH 7.4, embedded in paraffin and cut at 10-μm thickness. Sections were stained with Hematoxylin and Eosin, Luxol fast blue, or silver nitrate. Images were acquired by using a Zeiss Axioskop2 plus microscope with AxioCam HRC and AxioVision software and analyzed by using ImageJ software. […]

primary astrocytes = experiment: Seahorse Mito Stress test (oxygen consumption) in primary astrocytes; format: cell-based, mouse
Description: Oxygen consumption. […] Mito Stress assay was then performed with Seahorse XF Cell Mito Stress Test Kit (Agilent Technologies, #103015-100) following the manufacturer's manual. […] The assay medium (DEMEM with 10 mM Glucose, 1 mM pyruvate and 2 mM glutamine) was used during the assay. The OCR rate was normalized to cell number estimated using CyQUANT cell proliferation assay kit (Invitrogen, #C7026).

astrocytes [1] = experiment: Mitochondrial ROS measurement (MitoSOX) in astrocytes; format: cell-based, mouse; conditions: induced by stimulation with TNFα and IL-1β
Description: Mitochondrial ROS measurement. 50,000 astrocytes were seeded per well in 96-well black plates and rested for 2 days in complete medium, followed by activation or inhibitor pretreatment for 24 h. MitoSOX red (Thermo Fisher Scientific, #M36008) was used to stain for mitochondrial ROS for 10 min following the manual and the signal was detected on Infinite M1000 PRO Microplate Reader (Tecan). The fluorescent signal was normalized to cell number estimated using CyQUANT cell proliferation assay kit (Invitrogen, #C7026) first and then compared to control group for data analysis.

astrocytes [2] = experiment: TNFα production in astrocytes (AlphaLISA, astrocyte-microglia co-cultures); format: cell-based, mouse; conditions: primary astrocytes
Description: AlphaLISA. Astrocyte-microglia co-cultures were seeded in 384 well plates pre coated with Poly-L-Lysine at a density of 10^4 cells/well. After 3 days, cells were preincubated with the corresponding compounds 30 minutes before LPS stimulation (0.5 ng/mL Invivogen #tlrl-3pelps) and supernatants were collected after 18 h of incubation. mTNFalpha kit (Perkin Elmer #AL505) was used to measure TNFα in the supernatants following the high sensitivity protocol according to manufacturer's instructions. Briefly, 2 μl of the supernatants or given standards were subsequently mixed with 5 μl of anti-TNFα acceptor beads, 30 minutes after biotinylated antibody anti-TNFα was added after 1 h SA-Donor beads were added and incubated 30 minutes. All incubations were performed at 23° C. in the dark. Fluorescence at 615 nm was then measured using an EnVision-Apha Reader (Perkin Elmer #2105-0010).

[3] = 20 mg/kg from the peak of the disease
[4] = daily intraperitoneal injections

For `O=C(Nc1ccccc1Cl)c1cnc2ccc(C3CCNCC3)cn12` [A38], the T-cell response (EAE in C57BL/6 mice; [3]) was “did not affect T-cell response”, the “astrocyte and microglial expression of transcriptional modules associated with CNS inflammation and neurodegeneration (RNA-seq)” value (EAE in C57BL/6 mice; [3]) was “decreased” and the “axonal loss (histopathology)” value (EAE in C57BL/6 mice; [3]) was “reduced demyelination, and axonal loss”. For the same compound, the “demyelination (histopathology)” value (EAE in C57BL/6 mice; [3]) was “reduced demyelination”, the “recruitment of Ly6C^Hi pro-inflammatory monocytes to the CNS” value (EAE in C57BL/6 mice; [3]) was “reduced the recruitment” and the EAE clinical scores (EAE in C57BL/6 mice; 20 mg/kg i.p. twice a day from the peak of the disease) was “ameliorated EAE, as indicated by the reduction in clinical scores”. For the same compound, the “expression of genes related to ROS metabolic processes in astrocytes isolated from treated EAE mice” value (EAE in C57BL/6 mice; FIG. 5D) was “a decrease in the expression”, the “therapeutic effects of A38 concomitant with EphB3 knockdown in astrocytes” value (EAE in C57BL/6 mice; compared with either intervention alone) was “did not further increase the therapeutic effects” and the “T cell counts in the spleen” value (EAE in C57BL/6 mice; [4]) was “unchanged”. For the same compound, the “pro-inflammatory monocytes in the CNS” value (EAE in C57BL/6 mice; [4]) was “decrease”, the “course of EAE, preventive treatment” value (EAE in C57BL/6 mice; daily intraperitoneal injections from day 3 (priming phase)) was “did not alter the course of EAE” and the “clinical course of EAE, treatment during the chronic phase” value (EAE in C57BL/6 mice; daily intraperitoneal injections from day 21) was “ameliorated the clinical course significantly”. The “IFN-γ and IL-17 producing T cells in the CNS” value (EAE in C57BL/6 mice; daily intraperitoneal injections, chronic phase) was “significant decrease”, the ATP-linked respiration (primary astrocytes) was “decreased” and the basal mitochondrial respiration (primary astrocytes) was “decreased”. The maximal mitochondrial respiration (primary astrocytes) was “decreased”, the “mitochondrial production of ROS” value (astrocytes [1]) was “decreased” and the “TNFα production in astrocytes” value (astrocytes [2]) was “suppressed TNFα production; also recorded: highly efficient in down-modulating TNF-α production”.
